Experimental data reported in the NIST ThermoML archive (doi:10.1021/je1005483).

Key:
[1] = 101.3 kPa, Liquid; for speed of sound: 298.15 K
[2] = molar heat capacity at constant pressure; settings: 298.15 K; 101.3 kPa; Liquid; Flow calorimetry
[3] = xn = mol fraction of the nth substance listed; settings: 101.3 kPa, Liquid; for speed of sound: 298.15 K

CC1COC(=O)O1 (configuration not stated) [4-methyl-1,3-dioxolan-2-one]
Settings | molar heat capacity at constant pressure [J/K/mol] | speed of sound [m/s]
[1] | – | 1443
[2] | 166.98 | –

[1]
Settings | mass density [kg/m3]
308.15 K | 1188.73
318.15 K | 1179.31

CC(=O)N(C)C [N,N-dimethylethanamide]
Settings | speed of sound [m/s]
[1] | 1458.7

[1]
Settings | mass density [kg/m3]
308.15 K | 927.294
318.15 K | 918.616

CC(=O)N(C)C [N,N-dimethylethanamide] + CC#N
[3]
Settings | speed of sound [m/s]
x1 = 0.04872 | 1286.5
x1 = 0.1004 | 1297.5
x1 = 0.1898 | 1315.5
x1 = 0.2932 | 1336.4
x1 = 0.4046 | 1357.3
x1 = 0.503 | 1375.5
x1 = 0.6044 | 1393.7
x1 = 0.7074 | 1410.8
x1 = 0.8048 | 1427.5
x1 = 0.9035 | 1440
x1 = 1 | 1458.7

mass density [kg/m3], [3]
Settings | 308.15 K | 318.15 K
x1 = 0.00994 | 768.688 | –
x1 = 0.01091 | – | 759.018
x1 = 0.02031 | 771.713 | –
x1 = 0.02054 | – | 761.841
x1 = 0.03016 | 774.535 | –
x1 = 0.0309 | – | 764.83
x1 = 0.04069 | 777.504 | –
x1 = 0.04289 | – | 768.228
x1 = 0.05104 | 780.389 | –
x1 = 0.0529 | – | 771.009
x1 = 0.05848 | 782.424 | –
x1 = 0.05906 | – | 772.711
x1 = 0.06932 | 785.313 | –
x1 = 0.06978 | – | 775.606
x1 = 0.08223 | 788.745 | –
x1 = 0.08535 | – | 779.778
x1 = 0.08742 | – | 780.299
x1 = 0.09057 | 790.902 | –
x1 = 0.1009 | 793.541 | –
x1 = 0.1022 | – | 784.094
x1 = 0.1438 | – | 794.432
x1 = 0.1497 | 805.533 | –
x1 = 0.1834 | – | 803.73
x1 = 0.1884 | 814.49 | –
x1 = 0.2301 | – | 813.975
x1 = 0.237 | 824.887 | –
x1 = 0.2935 | – | 826.829
x1 = 0.3015 | 837.769 | –
x1 = 0.387 | – | 843.966
x1 = 0.4044 | 856.101 | –
x1 = 0.503 | – | 862.53
x1 = 0.5085 | 872.475 | –
x1 = 0.6026 | – | 876.476
x1 = 0.6251 | 888.44 | –
x1 = 0.7047 | – | 889.23
x1 = 0.7059 | 898.16 | –
x1 = 0.8034 | 908.919 | –
x1 = 0.8085 | – | 900.68
x1 = 0.9024 | 918.675 | –
x1 = 0.909 | – | 910.546
x1 = 0.9117 | 919.547 | –
x1 = 0.9144 | – | 911.049
x1 = 0.9215 | – | 911.696
x1 = 0.9216 | 920.459 | –
x1 = 0.932 | – | 912.659
x1 = 0.9322 | 921.402 | –
x1 = 0.941 | 922.202 | –
x1 = 0.9414 | – | 913.506
x1 = 0.9515 | 923.129 | –
x1 = 0.9546 | – | 914.681
x1 = 0.9614 | 924 | –
x1 = 0.963 | – | 915.423
x1 = 0.9712 | 924.844 | –
x1 = 0.9716 | – | 916.181
x1 = 0.9809 | – | 916.988
x1 = 0.9811 | 925.7 | –
x1 = 0.9893 | 926.398 | –
x1 = 0.9911 | – | 917.856
x1 = 1 | 927.294 | 918.616

CC#N [acetonitrile]
Settings | speed of sound [m/s]
[1] | 1279.6

[1]
Settings | mass density [kg/m3]
308.15 K | 765.735
318.15 K | 755.763

CC#N [acetonitrile] + CC1COC(=O)O1
Settings | speed of sound [m/s]
[3], x2 = 0 | 1279.6

[3], x2 = 0
Settings | mass density [kg/m3]
308.15 K | 765.735
318.15 K | 755.763

CC#N [acetonitrile] + CC(=O)N(C)C
Settings | speed of sound [m/s]
[3], x2 = 0 | 1279.6

[3], x2 = 0
Settings | mass density [kg/m3]
308.15 K | 765.735
318.15 K | 755.763
